Assay [1] concerns the target T1, 5-hydroxytryptamine receptor 1A (Mus musculus, UniProt Q64264).
T1 sequence (Q64264 whole entry): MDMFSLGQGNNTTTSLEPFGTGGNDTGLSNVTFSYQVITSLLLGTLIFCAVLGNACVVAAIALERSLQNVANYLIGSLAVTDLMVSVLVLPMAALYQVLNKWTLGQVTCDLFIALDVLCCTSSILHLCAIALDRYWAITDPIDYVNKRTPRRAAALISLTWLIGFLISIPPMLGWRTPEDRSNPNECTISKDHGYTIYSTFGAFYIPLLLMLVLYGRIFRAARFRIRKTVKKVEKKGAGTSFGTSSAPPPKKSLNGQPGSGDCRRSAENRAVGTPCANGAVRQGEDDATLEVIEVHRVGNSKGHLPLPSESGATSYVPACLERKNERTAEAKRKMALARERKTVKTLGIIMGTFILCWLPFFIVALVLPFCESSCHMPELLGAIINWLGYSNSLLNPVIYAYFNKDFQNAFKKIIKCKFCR
Description: The compound's binding affinity against 5-hydroxytryptamine 1A receptor.

Another assay has as its target D(2) dopamine receptor (Homo sapiens, UniProt P14416). Description: The compound's binding affinity against Dopamine receptor D2.
Assay [2] deals with T2, Alpha-2B adrenergic receptor (Rattus norvegicus, UniProt P19328).
T2 sequence (P19328 whole entry): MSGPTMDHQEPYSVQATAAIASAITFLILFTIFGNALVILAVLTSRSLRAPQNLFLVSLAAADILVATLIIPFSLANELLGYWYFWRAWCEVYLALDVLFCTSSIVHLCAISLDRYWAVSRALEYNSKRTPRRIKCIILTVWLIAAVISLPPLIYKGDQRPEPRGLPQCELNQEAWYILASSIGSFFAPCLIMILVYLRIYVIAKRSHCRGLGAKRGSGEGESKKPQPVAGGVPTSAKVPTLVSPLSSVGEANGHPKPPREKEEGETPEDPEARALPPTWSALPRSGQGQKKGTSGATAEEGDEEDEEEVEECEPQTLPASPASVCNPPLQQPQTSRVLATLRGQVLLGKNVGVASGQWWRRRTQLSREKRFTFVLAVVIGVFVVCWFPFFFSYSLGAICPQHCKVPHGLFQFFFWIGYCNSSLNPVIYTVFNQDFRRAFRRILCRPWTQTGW
Description: The compound's binding affinity against Alpha-2B adrenergic receptor from rat kidney homogenate in the presence of phentolamine.

SMILES strings stand for the structures.

Chain of D(2) dopamine receptor (P14416 whole entry): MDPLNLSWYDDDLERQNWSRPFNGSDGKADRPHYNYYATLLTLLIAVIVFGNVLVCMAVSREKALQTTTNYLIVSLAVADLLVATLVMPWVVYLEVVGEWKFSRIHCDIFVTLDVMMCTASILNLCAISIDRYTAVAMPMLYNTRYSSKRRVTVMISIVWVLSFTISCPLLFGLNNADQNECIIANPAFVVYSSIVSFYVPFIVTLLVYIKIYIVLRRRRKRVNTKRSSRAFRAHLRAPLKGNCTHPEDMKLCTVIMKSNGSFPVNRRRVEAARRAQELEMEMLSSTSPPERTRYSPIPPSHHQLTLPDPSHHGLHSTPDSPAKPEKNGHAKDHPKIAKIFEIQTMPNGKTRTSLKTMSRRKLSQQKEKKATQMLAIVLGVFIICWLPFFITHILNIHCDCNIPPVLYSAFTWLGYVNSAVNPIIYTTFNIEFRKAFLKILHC

The pKi is the Ki on a negative log10 scale, so that one unit is a factor of ten. As to `COc1cc(F)ccc1N1CCN(CCCNc2c(C(=O)N(C)C)cnc3c2c(C)nn3C)CC1`, the pKi in assay [1] was 6.5; at D(2) dopamine receptor, 6.4.
For `COc1ccccc1N1CCN(CCCNc2ncccc2C(=O)N(C)C)CC1` the same measures were 7.6 and 7.4.
Consider `COc1cc(F)ccc1N1CCN(CCCNc2ncccc2C(=O)N(C)C)CC1`, for which the pKi in assay [2] was 6.5; in assay [1] it was 6.7; on D(2) dopamine receptor, 6.7.
As to `Cc1nn(C)c2ncc(C(=O)N(C)C)c(NCCCN3CCN(c4ccccc4OCC(F)(F)F)CC3)c12`, the pKi in assay [2] was determined as 8.6; in assay [1] it was 7.5; on D(2) dopamine receptor, 8.1.

The values are drawn from BindingDB's records for doi:10.1021/jm970166j (Roche Bioscience, 1997).
